The NIST ThermoML archive (doi:10.1016/j.jct.2019.03.025)
± gives the expanded uncertainty stated by the source.

Conditions: Liquid, Vibrating tube method

## Cc1cccc(C)c1 [1,3-dimethylbenzene]
293.15 K, 100 kPa
  mass density: 864.2 ± 0.9 kg/m3
293.15 K, 1000 kPa
  mass density: 864.4 ± 0.9 kg/m3
293.15 K, 3000 kPa
  mass density: 865.8 ± 0.9 kg/m3
293.15 K, 5000 kPa
  mass density: 866.9 ± 0.9 kg/m3
293.15 K, 10000 kPa
  mass density: 870.5 ± 0.9 kg/m3
293.15 K, 15000 kPa
  mass density: 873.8 ± 0.9 kg/m3
293.15 K, 20000 kPa
  mass density: 877 ± 0.9 kg/m3
293.15 K, 25000 kPa
  mass density: 880.2 ± 0.9 kg/m3
293.15 K, 30000 kPa
  mass density: 883.2 ± 0.9 kg/m3
293.15 K, 35000 kPa
  mass density: 886 ± 1 kg/m3
293.15 K, 40000 kPa
  mass density: 888.7 ± 1 kg/m3
293.15 K, 50000 kPa
  mass density: 894.4 ± 1 kg/m3
293.15 K, 60000 kPa
  mass density: 899.1 ± 1 kg/m3
303.15 K, 100 kPa
  mass density: 855 ± 0.9 kg/m3
303.15 K, 1000 kPa
  mass density: 855.4 ± 0.9 kg/m3
303.15 K, 3000 kPa
  mass density: 857.5 ± 0.9 kg/m3
303.15 K, 5000 kPa
  mass density: 858.8 ± 0.9 kg/m3
303.15 K, 10000 kPa
  mass density: 862.3 ± 0.9 kg/m3
303.15 K, 15000 kPa
  mass density: 865.8 ± 0.9 kg/m3
303.15 K, 20000 kPa
  mass density: 869 ± 0.9 kg/m3
303.15 K, 25000 kPa
  mass density: 872.2 ± 0.9 kg/m3
303.15 K, 30000 kPa
  mass density: 875.3 ± 0.9 kg/m3
303.15 K, 35000 kPa
  mass density: 878.2 ± 1 kg/m3
303.15 K, 40000 kPa
  mass density: 881 ± 1 kg/m3
303.15 K, 50000 kPa
  mass density: 886.7 ± 1 kg/m3
303.15 K, 60000 kPa
  mass density: 892 ± 1 kg/m3
313.15 K, 100 kPa
  mass density: 846.7 ± 0.9 kg/m3
313.15 K, 1000 kPa
  mass density: 846.9 ± 0.9 kg/m3
313.15 K, 3000 kPa
  mass density: 848.6 ± 0.9 kg/m3
313.15 K, 5000 kPa
  mass density: 850.1 ± 0.9 kg/m3
313.15 K, 10000 kPa
  mass density: 854 ± 0.9 kg/m3
313.15 K, 15000 kPa
  mass density: 857.6 ± 0.9 kg/m3
313.15 K, 20000 kPa
  mass density: 861.1 ± 0.9 kg/m3
313.15 K, 25000 kPa
  mass density: 864.5 ± 0.9 kg/m3
313.15 K, 30000 kPa
  mass density: 867.7 ± 0.9 kg/m3
313.15 K, 35000 kPa
  mass density: 870.9 ± 0.9 kg/m3
313.15 K, 40000 kPa
  mass density: 873.8 ± 1 kg/m3
313.15 K, 50000 kPa
  mass density: 879.8 ± 1 kg/m3
313.15 K, 60000 kPa
  mass density: 885.1 ± 1 kg/m3
323.15 K, 100 kPa
  mass density: 837.7 ± 0.9 kg/m3
323.15 K, 1000 kPa
  mass density: 838.6 ± 0.9 kg/m3
323.15 K, 3000 kPa
  mass density: 840.2 ± 0.9 kg/m3
323.15 K, 5000 kPa
  mass density: 841.9 ± 0.9 kg/m3
323.15 K, 10000 kPa
  mass density: 845.9 ± 0.9 kg/m3
323.15 K, 15000 kPa
  mass density: 849.8 ± 0.9 kg/m3
323.15 K, 20000 kPa
  mass density: 853.6 ± 0.9 kg/m3
323.15 K, 25000 kPa
  mass density: 857 ± 0.9 kg/m3
323.15 K, 30000 kPa
  mass density: 860.4 ± 0.9 kg/m3
323.15 K, 35000 kPa
  mass density: 863.7 ± 0.9 kg/m3
323.15 K, 40000 kPa
  mass density: 866.9 ± 1 kg/m3
323.15 K, 50000 kPa
  mass density: 873 ± 1 kg/m3
323.15 K, 60000 kPa
  mass density: 878.8 ± 1 kg/m3
333.15 K, 100 kPa
  mass density: 829 ± 0.9 kg/m3
333.15 K, 1000 kPa
  mass density: 829.8 ± 0.9 kg/m3
333.15 K, 3000 kPa
  mass density: 831.7 ± 0.9 kg/m3
333.15 K, 5000 kPa
  mass density: 833.4 ± 0.9 kg/m3
333.15 K, 10000 kPa
  mass density: 837.6 ± 0.9 kg/m3
333.15 K, 15000 kPa
  mass density: 841.6 ± 0.9 kg/m3
333.15 K, 20000 kPa
  mass density: 845.6 ± 0.9 kg/m3
333.15 K, 25000 kPa
  mass density: 849.3 ± 0.9 kg/m3
333.15 K, 30000 kPa
  mass density: 852.8 ± 0.9 kg/m3
333.15 K, 35000 kPa
  mass density: 856.2 ± 0.9 kg/m3
333.15 K, 40000 kPa
  mass density: 859.7 ± 1 kg/m3
333.15 K, 50000 kPa
  mass density: 866 ± 1 kg/m3
333.15 K, 60000 kPa
  mass density: 871.9 ± 1 kg/m3
343.15 K, 100 kPa
  mass density: 820 ± 0.9 kg/m3
343.15 K, 1000 kPa
  mass density: 821.1 ± 0.9 kg/m3
343.15 K, 3000 kPa
  mass density: 823 ± 0.9 kg/m3
343.15 K, 5000 kPa
  mass density: 825 ± 0.9 kg/m3
343.15 K, 10000 kPa
  mass density: 829.4 ± 0.9 kg/m3
343.15 K, 15000 kPa
  mass density: 833.6 ± 0.9 kg/m3
343.15 K, 20000 kPa
  mass density: 837.9 ± 0.9 kg/m3
343.15 K, 25000 kPa
  mass density: 841.7 ± 0.9 kg/m3
343.15 K, 30000 kPa
  mass density: 845.5 ± 0.9 kg/m3
343.15 K, 35000 kPa
  mass density: 849.2 ± 0.9 kg/m3
343.15 K, 40000 kPa
  mass density: 852.5 ± 1 kg/m3
343.15 K, 50000 kPa
  mass density: 859.1 ± 1 kg/m3
343.15 K, 60000 kPa
  mass density: 865 ± 1 kg/m3
353.15 K, 100 kPa
  mass density: 811.3 ± 0.8 kg/m3
353.15 K, 1000 kPa
  mass density: 812.2 ± 0.8 kg/m3
353.15 K, 3000 kPa
  mass density: 814.3 ± 0.9 kg/m3
353.15 K, 5000 kPa
  mass density: 816.2 ± 0.9 kg/m3
353.15 K, 10000 kPa
  mass density: 821 ± 0.9 kg/m3
353.15 K, 15000 kPa
  mass density: 825.7 ± 0.9 kg/m3
353.15 K, 20000 kPa
  mass density: 829.8 ± 0.9 kg/m3
353.15 K, 25000 kPa
  mass density: 834 ± 0.9 kg/m3
353.15 K, 30000 kPa
  mass density: 838 ± 0.9 kg/m3
353.15 K, 35000 kPa
  mass density: 841.7 ± 0.9 kg/m3
353.15 K, 40000 kPa
  mass density: 845.3 ± 1 kg/m3
353.15 K, 50000 kPa
  mass density: 852.1 ± 1 kg/m3
353.15 K, 60000 kPa
  mass density: 858.5 ± 1 kg/m3
363.15 K, 100 kPa
  mass density: 802.2 ± 0.8 kg/m3
363.15 K, 1000 kPa
  mass density: 803.3 ± 0.8 kg/m3
363.15 K, 3000 kPa
  mass density: 805.5 ± 0.8 kg/m3
363.15 K, 5000 kPa
  mass density: 807.6 ± 0.8 kg/m3
363.15 K, 10000 kPa
  mass density: 812.4 ± 0.9 kg/m3
363.15 K, 15000 kPa
  mass density: 817.6 ± 0.9 kg/m3
363.15 K, 20000 kPa
  mass density: 821.8 ± 0.9 kg/m3
363.15 K, 25000 kPa
  mass density: 826 ± 0.9 kg/m3
363.15 K, 30000 kPa
  mass density: 830.2 ± 0.9 kg/m3
363.15 K, 35000 kPa
  mass density: 834.2 ± 0.9 kg/m3
363.15 K, 40000 kPa
  mass density: 838.1 ± 0.9 kg/m3
363.15 K, 50000 kPa
  mass density: 845.2 ± 1 kg/m3
363.15 K, 60000 kPa
  mass density: 852 ± 1 kg/m3
